Values quoted from earlier work in patent US10328040B2, “Therapeutic methods” (ARIZONA BOARD OF REGENTS ON BEHALF OF ARIZONA STATE …, priority 2014, dated 2019).

Experiments:
[1] = tested on: rat model of Parkinson's disease; conditions: low dose
hRXRβ = hRXRβ (Homo sapiens, UniProt P28702); conditions: read-out: EC50 for the hRXRβ isoform
hRXR [2] = conditions: Caco-2 cells
hRXR [3] = conditions: Caco-2 cells; remark: listed apart in the source
RXR γ = conditions: CV-1 cell line; read-out: EC50 for RXR γ subtype
RXR β = conditions: CV-1 cell line; read-out: EC50 for RXR β subtype

Chain of hRXRβ (P28702 whole entry, canonical isoform): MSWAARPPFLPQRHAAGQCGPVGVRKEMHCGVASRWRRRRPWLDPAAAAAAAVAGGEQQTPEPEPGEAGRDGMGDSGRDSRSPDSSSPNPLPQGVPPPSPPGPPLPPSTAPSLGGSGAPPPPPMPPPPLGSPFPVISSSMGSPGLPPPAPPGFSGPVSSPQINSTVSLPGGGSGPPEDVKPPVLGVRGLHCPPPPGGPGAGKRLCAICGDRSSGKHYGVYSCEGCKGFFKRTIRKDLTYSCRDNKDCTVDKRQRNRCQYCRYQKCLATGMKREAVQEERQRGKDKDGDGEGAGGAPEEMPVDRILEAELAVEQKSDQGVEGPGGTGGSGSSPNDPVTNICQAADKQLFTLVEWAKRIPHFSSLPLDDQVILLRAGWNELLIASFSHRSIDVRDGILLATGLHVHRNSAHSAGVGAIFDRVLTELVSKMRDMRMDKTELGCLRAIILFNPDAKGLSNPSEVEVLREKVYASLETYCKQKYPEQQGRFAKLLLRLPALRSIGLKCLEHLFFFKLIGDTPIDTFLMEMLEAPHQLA

C=C(c1ccc(C(=O)O)cc1)c1cc2c(cc1C)C(C)(C)CCC2(C)C [Bexarotene]
PD symptoms [1]: marked improvement in the PD symptoms | dopamine cells and natural behavior ([1]; rat model of PD): restored dopamine cells and natural behavior

Cc1cc2c(cc1-c1cc(/C=C/C(=O)O)ccc1O)C(C)(C)CCC2(C)C [CD3254, (E)-3-(3-(1,2,3,4-tetrahydro-1,1,4,4,6-pentamethylnaphthylen-7-yl)-4-hydroxyphenyl)acrylic Acid]
EC50 (hRXRβ): ~10 nM

C=C(c1ccc(C(=O)O)c(F)c1)c1cc2c(cc1C)C(C)(C)CCC2(C)C [Compound 3]
EC50 (hRXR [2]): 43 nM | Kd (hRXR [3]): 12 nM

C=C(c1ccc(C(=O)O)cn1)c1cc2c(cc1C)C(C)(C)CCC2(C)C [Compound 1]
EC50 (RXR γ): […] | EC50 (RXR β): […]
